Measured values: ChEMBL document CHEMBL3885881, “DrugMatrix”

Species: Rattus norvegicus
Assay: DrugMatrix - Regimen: Daily Repeat
Format: toxicity, organism-based, Sprague-Dawley
Design: regimen Daily Repeat, gender Male, age 6-8 weeks
Settings: in vivo, po, route oral GAVAGE, vehicle .5 % CMC; for BASOPHIL / EOSINOPHIL / ERYTHROCYTE COUNT / HEMATOCRIT / HEMOGLOBIN / LEUKOCYTE COUNT / LYMPHOCYTE / MEAN CORPUSCULAR HEMOGLOBIN / MEAN CORPUSCULAR HEMOGLOBIN CONCENTRATION / MEAN CORPUSCULAR VOLUME / MONOCYTE / NEUTROPHIL / PLATELET COUNT: tissue Blood; for ALANINE AMINOTRANSFERASE / ALBUMIN / ALKALINE PHOSPHATASE / ASPARTATE AMINOTRANSFERASE / BLOOD UREA NITROGEN / CHLORIDE / CHOLESTEROL / CREATINE PHOSPHOKINASE / CREATININE / GLUCOSE / PHOSPHORUS / POTASSIUM / SODIUM / TOTAL BILIRUBIN / TOTAL PROTEIN: tissue Plasma
[1] = 0 mg/kg, 72 h, dose level Control, time 3 day
[2] = 0 mg/kg, 120 h, dose level Control, time 5 day
[3] = 59 mg/kg, 72 h, dose level Low, time 3 day
[4] = 59 mg/kg, 120 h, dose level Low, time 5 day

Question: What does the source list for `CC[C@@H](CO)NCCN[C@@H](CC)CO` [ETHAMBUTOL]?
Answer: BASOPHIL [1]: 0%; EOSINOPHIL [1]: 0.33%; ERYTHROCYTE COUNT [1]: 6.2 x10E6/uL; HEMATOCRIT [1]: 38.08%; HEMOGLOBIN [1]: 14.92 G/DL; LEUKOCYTE COUNT [1]: 11.13 x10E3/uL; LYMPHOCYTE [1]: 76%; MEAN CORPUSCULAR HEMOGLOBIN [1]: 24.1 pg; MEAN CORPUSCULAR HEMOGLOBIN CONCENTRATION [1]: 39.17 G/DL; MEAN CORPUSCULAR VOLUME [1]: 61.48 fL; MONOCYTE [1]: 3.83%; NEUTROPHIL [1]: 19.83%; PLATELET COUNT [1]: 1327.5 x10E3/uL; ALANINE AMINOTRANSFERASE [1]: 40.17 u/L; ALBUMIN [1]: 4.07 G/DL; ALKALINE PHOSPHATASE [1]: 372 u/L; ASPARTATE AMINOTRANSFERASE [1]: 67.17 u/L; BLOOD UREA NITROGEN [1]: 18.83 mg/dL; CHLORIDE [1]: 105.17 MEQ/L; CHOLESTEROL [1]: 78.17 mg/dL; CREATINE PHOSPHOKINASE [1]: 149.17 u/L; CREATININE [1]: 0.57 mg/dL; GLUCOSE [1]: 185.17 mg/dL; PHOSPHORUS [1]: 11.43 mg/dL; POTASSIUM [1]: 6.78 MEQ/L; SODIUM [1]: 152.83 MEQ/L; TOTAL BILIRUBIN [1]: 0.4 mg/dL; TOTAL PROTEIN [1]: 6.87 G/DL; BASOPHIL [2]: 0%; EOSINOPHIL [2]: 0%; ERYTHROCYTE COUNT [2]: 6.05 x10E6/uL; HEMATOCRIT [2]: 36.55%; HEMOGLOBIN [2]: 14.7 G/DL; LEUKOCYTE COUNT [2]: 11.8 x10E3/uL; LYMPHOCYTE [2]: 86.83%; MEAN CORPUSCULAR HEMOGLOBIN [2]: 24.37 pg; MEAN CORPUSCULAR HEMOGLOBIN CONCENTRATION [2]: 40.32 G/DL; MEAN CORPUSCULAR VOLUME [2]: 60.47 fL; MONOCYTE [2]: 0.83%; NEUTROPHIL [2]: 12.33%; PLATELET COUNT [2]: 1177 x10E3/uL; ALANINE AMINOTRANSFERASE [2]: 41.83 u/L; ALBUMIN [2]: 3.75 G/DL; ALKALINE PHOSPHATASE [2]: 377.5 u/L; ASPARTATE AMINOTRANSFERASE [2]: 60.83 u/L; BLOOD UREA NITROGEN [2]: 16 mg/dL; CHLORIDE [2]: 105.67 MEQ/L; CHOLESTEROL [2]: 67.83 mg/dL; CREATINE PHOSPHOKINASE [2]: 120.33 u/L; CREATININE [2]: 0.6 mg/dL; GLUCOSE [2]: 167.67 mg/dL; PHOSPHORUS [2]: 10.03 mg/dL; POTASSIUM [2]: 6.68 MEQ/L; SODIUM [2]: 150.5 MEQ/L; TOTAL BILIRUBIN [2]: 0.57 mg/dL; TOTAL PROTEIN [2]: 6.25 G/DL; BASOPHIL [3]: 0%; EOSINOPHIL [3]: 0.67%; ERYTHROCYTE COUNT [3]: 6.09 x10E6/uL; HEMATOCRIT [3]: 36.33%; HEMOGLOBIN [3]: 14.2 G/DL; LEUKOCYTE COUNT [3]: 11.65 x10E3/uL; LYMPHOCYTE [3]: 88%; MEAN CORPUSCULAR HEMOGLOBIN [3]: 23.7 pg; MEAN CORPUSCULAR HEMOGLOBIN CONCENTRATION [3]: 39.55 G/DL; MEAN CORPUSCULAR VOLUME [3]: 59.63 fL; MONOCYTE [3]: 0.33%; NEUTROPHIL [3]: 11%; PLATELET COUNT [3]: 1231 x10E3/uL; ALANINE AMINOTRANSFERASE [3]: 35.33 u/L; ALBUMIN [3]: 3.63 G/DL; ALKALINE PHOSPHATASE [3]: 327.67 u/L; ASPARTATE AMINOTRANSFERASE [3]: 58.33 u/L; BLOOD UREA NITROGEN [3]: 11.67 mg/dL; CHLORIDE [3]: 104.33 MEQ/L; CHOLESTEROL [3]: 68 mg/dL; CREATINE PHOSPHOKINASE [3]: 185 u/L; CREATININE [3]: 0.57 mg/dL; GLUCOSE [3]: 165.33 mg/dL; PHOSPHORUS [3]: 12.53 mg/dL; POTASSIUM [3]: 6.5 MEQ/L; SODIUM [3]: 149.67 MEQ/L; TOTAL BILIRUBIN [3]: 0.27 mg/dL; TOTAL PROTEIN [3]: 5.9 G/DL; BASOPHIL [4]: 0%; EOSINOPHIL [4]: 0%; ERYTHROCYTE COUNT [4]: 6.14 x10E6/uL; HEMATOCRIT [4]: 38.6%; HEMOGLOBIN [4]: 15.1 G/DL; LEUKOCYTE COUNT [4]: 11.85 x10E3/uL; LYMPHOCYTE [4]: 89.33%; MEAN CORPUSCULAR HEMOGLOBIN [4]: 24.7 pg; MEAN CORPUSCULAR HEMOGLOBIN CONCENTRATION [4]: 39.2 G/DL; MEAN CORPUSCULAR VOLUME [4]: 63.03 fL; MONOCYTE [4]: 0.67%; NEUTROPHIL [4]: 10%; PLATELET COUNT [4]: 1247.67 x10E3/uL; ALANINE AMINOTRANSFERASE [4]: 27.67 u/L; ALBUMIN [4]: 3.57 G/DL; ALKALINE PHOSPHATASE [4]: 273.67 u/L; ASPARTATE AMINOTRANSFERASE [4]: 55 u/L; BLOOD UREA NITROGEN [4]: 11.33 mg/dL; CHLORIDE [4]: 105.67 MEQ/L; CHOLESTEROL [4]: 89 mg/dL; CREATINE PHOSPHOKINASE [4]: 135.33 u/L; CREATININE [4]: 0.5 mg/dL; GLUCOSE [4]: 157.67 mg/dL; PHOSPHORUS [4]: 11.8 mg/dL; POTASSIUM [4]: 6.47 MEQ/L; SODIUM [4]: 151.33 MEQ/L; TOTAL BILIRUBIN [4]: 0.2 mg/dL; TOTAL PROTEIN [4]: 6 G/DL
